The values that follow come from patent publication US7348336B2 (Sanofi-Aventis Deutschland GmbH, priority 2000, dated 2008).

SMILES strings stand for the structures. Where a name gives a salt, the structure may show the parent alone. Read-outs that look alike come from different tables or passages of the source.

For assay [1], the target named is T1, IκBα-kinase complex (Homo sapiens, UniProt O14920+O15111).
T1 construct: endogenous in cells; host or cells: HeLa S3 cell extract, S100 fraction; ammonium sulfate precipitation and Superose-6 size exclusion
Description: IkB-Kinase ELISA.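 Also: substrate phosphopeptide captured on Protein-A plates, detected with Streptavidin-HRP and TMB absorbance at 450 nm, activity read from a synthetic phosphopeptide standard curve.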 Format: biochemical. On the technique in general: An ELISA detects its analyte on a solid surface through an enzyme-linked reagent.

Assay [2] deals with cardiac allograft (BALB/c->C57BL/6 or B6/129). As to the kind of experiment: Mouse heterotopic cardiac transplant model. The settings on record: oral, 25 mg/kg/day for 14 days, starting at transplantation; mean±SD. The class given is in vivo. The source says:
Mouse Heterotopic Cardiac Transplant Model
In the mouse heterotopic cardiac transplant model across full histocompatibility barriers (BALB/c->C57BL/6 or B6/129), graft survival is typically limited to 7.3±0.4 days (mean±SD, n0 allografts) (see for example in Hancock W W, Sayegh M H, Zheng X G, Peach R, Linsley P S, Turka L A. Costimulatory function and expression of CD40-ligand, CD80 and CD86 or in vascularized murine cardiac allograft rejection. Proc Natl Acad Sci (USA) 93, 1996, 13967-13972; and Hancock W W, Buelow R, Sayegh M H, Turka L A. Antibody-induced transplant arteriosclerosis is prevented by graft expression of anti-oxidant and anti-apoptotic genes. Nature Med 4, 1998, 1392-1396).
The effects of oral administration of the compounds according to examples 49 and 60 were tested using 25 mg/kg/day for 14 days, starting at transplantation in said animal model. Whereas grafts in animals receiving the carrier, methyl-cellulose, rejected by 7 days (6.7±0.8), grafts in compound 49-treated mice survived around 15 days (15.3±0.6), and grafts in those given compound 60 survived for 20 days (20±1). Current immunosuppressive therapies used in transplantation have limited efficacy and/or considerable toxicity.

[3] abbreviates: activated IκBα kinase complex from HeLa S3 cell extracts, ELISA, read-out: IkB-kinase IC50.

T1 sequence (O14920 whole entry): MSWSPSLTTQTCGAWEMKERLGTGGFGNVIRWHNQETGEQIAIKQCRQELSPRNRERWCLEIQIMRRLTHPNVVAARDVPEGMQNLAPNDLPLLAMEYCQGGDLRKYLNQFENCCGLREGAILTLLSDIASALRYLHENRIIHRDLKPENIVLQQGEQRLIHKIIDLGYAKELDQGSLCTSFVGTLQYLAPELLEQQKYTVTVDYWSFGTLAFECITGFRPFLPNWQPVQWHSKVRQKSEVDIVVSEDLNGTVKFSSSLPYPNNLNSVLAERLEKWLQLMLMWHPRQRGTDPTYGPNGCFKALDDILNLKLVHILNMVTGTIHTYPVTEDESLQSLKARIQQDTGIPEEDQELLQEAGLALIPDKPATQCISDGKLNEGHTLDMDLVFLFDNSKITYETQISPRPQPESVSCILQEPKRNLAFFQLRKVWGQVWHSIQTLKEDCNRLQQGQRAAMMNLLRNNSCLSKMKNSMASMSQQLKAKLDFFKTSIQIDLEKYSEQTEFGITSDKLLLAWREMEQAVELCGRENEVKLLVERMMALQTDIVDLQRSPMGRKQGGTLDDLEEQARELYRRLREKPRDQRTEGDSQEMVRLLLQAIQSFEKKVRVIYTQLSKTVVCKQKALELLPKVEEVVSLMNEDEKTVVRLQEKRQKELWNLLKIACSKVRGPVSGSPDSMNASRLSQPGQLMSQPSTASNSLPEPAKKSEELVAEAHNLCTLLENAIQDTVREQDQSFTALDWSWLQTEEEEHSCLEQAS
T1 sequence (O15111 whole entry): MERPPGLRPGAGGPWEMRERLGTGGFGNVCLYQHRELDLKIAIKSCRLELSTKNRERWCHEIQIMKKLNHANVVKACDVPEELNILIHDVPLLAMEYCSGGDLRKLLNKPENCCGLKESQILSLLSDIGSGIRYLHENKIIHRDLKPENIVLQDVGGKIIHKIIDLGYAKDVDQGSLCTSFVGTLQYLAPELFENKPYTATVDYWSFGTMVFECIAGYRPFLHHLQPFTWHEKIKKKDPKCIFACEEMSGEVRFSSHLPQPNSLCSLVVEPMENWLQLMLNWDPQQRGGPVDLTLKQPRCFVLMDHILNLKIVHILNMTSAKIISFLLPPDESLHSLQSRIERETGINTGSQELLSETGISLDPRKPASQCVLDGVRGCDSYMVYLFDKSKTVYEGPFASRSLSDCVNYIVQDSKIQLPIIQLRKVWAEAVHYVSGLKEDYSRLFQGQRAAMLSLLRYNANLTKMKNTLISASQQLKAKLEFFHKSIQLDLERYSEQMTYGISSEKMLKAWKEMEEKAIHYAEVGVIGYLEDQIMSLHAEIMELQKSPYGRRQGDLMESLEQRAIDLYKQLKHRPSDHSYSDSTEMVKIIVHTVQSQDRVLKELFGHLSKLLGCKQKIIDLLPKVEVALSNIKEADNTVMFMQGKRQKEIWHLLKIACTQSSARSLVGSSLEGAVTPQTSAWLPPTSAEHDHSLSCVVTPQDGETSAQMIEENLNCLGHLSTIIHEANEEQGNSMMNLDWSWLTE
T1 sequence (Q9Y6K9 whole entry partner): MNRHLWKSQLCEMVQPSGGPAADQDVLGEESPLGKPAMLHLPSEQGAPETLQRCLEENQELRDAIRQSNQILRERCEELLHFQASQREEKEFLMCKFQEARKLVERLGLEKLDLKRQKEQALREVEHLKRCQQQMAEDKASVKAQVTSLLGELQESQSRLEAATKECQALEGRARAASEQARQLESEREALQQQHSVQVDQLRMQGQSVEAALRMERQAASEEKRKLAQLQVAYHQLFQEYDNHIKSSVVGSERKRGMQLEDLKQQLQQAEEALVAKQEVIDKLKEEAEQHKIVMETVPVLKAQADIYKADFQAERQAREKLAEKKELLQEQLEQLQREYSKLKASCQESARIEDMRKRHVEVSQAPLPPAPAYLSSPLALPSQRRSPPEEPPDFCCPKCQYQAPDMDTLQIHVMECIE

For orientation: IC50 means the midpoint of a concentration-inhibition curve. With `O=C(Nc1cc(Cl)cc2c1[nH]c1cnccc12)c1ccc(F)cc1` [Example 49, trifluoroacetate], the half-maximal inhibitory concentration (IC50) in assay [1] (setting [3]) was 220 nM. Also, the graft survival in assay [2] turned out to be 15.3 ± 0.6 days. Regarding `O=C(Cc1ccccn1)Nc1cc(Cl)cc2c1[nH]c1cnccc12` [Example 108], the IC50 in assay [1] (setting [3]) came to 2100 nM. Still for that read-out and setting: the figure for `O=C(Nc1cc(Cl)cc2c1[nH]c1cnccc12)c1cccc(=O)[nH]1` [Example 109] is 2100 nM; for `O=C1CC[C@H](C(=O)Nc2cc(Cl)cc3c2[nH]c2cnccc23)O1` [Example 111] it is 540 nM. For the compound `O=S(=O)(Nc1cc(Cl)cc2c1[nH]c1cnccc12)c1ccc(F)cc1` [Example 112], the IC50 in assay [1] (setting [3]) stood at 930 nM.

With `O=C(Nc1cc(Cl)cc2c1[nH]c1cnccc12)c1ccc(Br)cc1` [Example 113], in assay [1] (setting [3]), the half-maximal inhibitory concentration (IC50) was determined as 640 nM. Still for that read-out and setting: the figure for `COc1c(Cl)cc2c([nH]c3cnccc32)c1NC(=O)c1ccc(F)cc1` [Example 114] is 2100 nM; for `O=C(Nc1c(O)c(Cl)cc2c1[nH]c1cnccc12)c1cccnc1` [Example 115] it is 4600 nM.

Take `O=C(Nc1cc(Cl)cc2c1[nH]c1cnccc12)c1ccc(Cl)cc1` [Example 116]: the IC50 in assay [1] (setting [3]) worked out at 1800 nM. On to `O=C(Nc1cc(Cl)cc2c1[nH]c1cnccc12)C1CCCC1` [Example 117], for which the IC50 in assay [1] (setting [3]) was 670 nM. As to `COc1c(Cl)cc2c([nH]c3cnccc32)c1NC(=O)c1ccc(Cl)nc1` [Example 118], the concentration for half-maximal inhibition (IC50) in assay [1] (setting [3]) was 120 nM. Turning to `COc1c(Cl)cc2c([nH]c3cnccc32)c1NC(=O)c1ccno1` [Example 119], in assay [1] (setting [3]), the concentration for half-maximal inhibition (IC50) stood at 600 nM. `COc1c(Cl)cc2c([nH]c3cnccc32)c1NC(=O)c1ccc(F)c(F)c1` [Example 120]: the IC50 in assay [1] (setting [3]) came to 400 nM.

On to `Nc1ccc(C(=O)Nc2cc(Cl)cc3c2[nH]c2cnccc23)cn1` [Example 121], for which, in assay [1] (IkB-kinase, unit inferred, read-out: IC50), the half-maximal inhibitory concentration (IC50) amounted to 1700 nM.
